We go through 1 molecule from US20160158415A1, “METHOD FOR DETOXIFYING A BIOLOGICAL TISSUE” (Sorin Group Italia S.r.l., priority 2010, published 2016).

“Also recorded” adds a separate entry of the source.

The experiment is described as follows: Fuchsine staining of free aldehyde groups on fixed, detoxified tissue (observed colour). Particulars: FIG. 1 samples; detoxified at room temperature about 24 hours; homocysteic acid 1.00% w/v or taurine 0.70% w/v in phosphate buffer pH 7; weaker staining = fewer free aldehyde groups. Also on record: species or system bovine.

Description: The efficacy of the method described herein, and therefore the occurrence of the reaction between the amino groups of the detoxifying molecule and the aldehyde groups present on the fixed tissue, is evaluated by staining of the aldehyde groups remaining free. The greater the staining intensity, the more numerous are the free aldehyde groups and, on the contrary, the weaker (or absent) the staining, the less numerous (or absent) are the free aldehyde groups present on the detoxified tissue.
The detoxification step was conducted at room temperature (20° C.), 40° C. and 50° C., for a period of time of 24 hours, using about 200 ml of solution for each tissue.
a second control sample (FIG. 1B) fixed with glutaraldehyde and detoxified with a solution containing homocysteic acid at a concentration (w/v) of 1.00% in phosphate buffer pH 7;
The tissue samples were immersed in the detoxifying solutions for about 24 hours at room temperature with gentle agitation.
The samples were immersed in the detoxifying solution for about 24 hours with gentle agitation both at room temperature and at 40° C.; the fourth sample detoxified at 50° C. was maintained immersed for 7-8 hours with gentle agitation.
Tissue staining to detect free aldehyde groups uses an acidic solution of rosaniline hydrochloride (fuchsine). […]

As to `N[C@@H](CCS(=O)(=O)O)C(=O)O` [homocysteic acid], the Staining observed result is given as “less than that of the control sample; also recorded: Violet”.
